Patent US12728136B2, “Liposomal nano formulation of combinational antibiotics and the uses thereof” (Purdue Research Foundation, priority 2018, dated 2026)

Key:
Format in all cases: cell-based, Pseudomonas aeruginosa
P. aeruginosa H131300444 [1] = assay: Minimum inhibitory concentration, broth microdilution; conditions: clinical isolate P. aeruginosa H131300444
Protocol: (§1) Briefly, fresh cultures of each strain were diluted in Cation-Adjusted Mueller-Hinton Broth (CAMHB; Mg^2+ at 12.2 mg/L and Ca^2+ at 23.0 mg/L [Oxoid, Hampshire, England]) giving an approximately inoculum of 10^^6 colony-forming units (CFU/ml) as the inocula. Drug concentrations of 0, 0.125, 0.25, 0.5, 1, 2, and 4 mg/L were derived from diluting the stock drug solution (5.12 mg/mL) with CAMHB.

P. aeruginosa H133880624 [2] = assay: as above; conditions: clinical isolate P. aeruginosa H133880624
Protocol: as §1

P. aeruginosa H131300444 [3] = assay: In vitro static time-kill experiment; conditions: colistin 2 mg/L and/or ciprofloxacin 8 mg/L; 0-24 hrs; FIG. 13A
Protocol: (§2) All samples were dissolved in CAMHB and all experiments were performed with an initial inoculum of ~10^6 CFU/mL in 20 mL of CAMHB in 50 mL pyrogen-free and sterile polypropylene tubes. […] Serial samples (50 μL) were obtained at 0, 1, 3, 6 and 24 hrs for viable cell counting and determination of drug concentrations. All samples were centrifuged at 12000×g for 10 min and cell pellets were resuspended in 0.9% saline and diluted accordingly for viable counting on nutrient agar plates. The bacteria were incubated at 37° C. for 24 hrs and the limit of detection was 20 CFU/mL (equivalent to one colony per plate). The colonies were counted with a ProtoCOL colony counter (Synbiosis, Cambridge, United Kingdom).

P. aeruginosa H133880624 [4] = assay: In vitro static time-kill experiment; conditions: colistin 2 mg/L and/or ciprofloxacin 8 mg/L; 0-24 hrs; FIG. 13B
Protocol: as §2

Colistin sulfate
MIC (P. aeruginosa H131300444 [1]): 128 mg/L
MIC (P. aeruginosa H133880624 [2]): 128 mg/L
time-kill profile (P. aeruginosa H131300444 [3]): no antibacterial effect
time-kill profile (P. aeruginosa H133880624 [4]): no antibacterial effect
